# Experimental data reported in patent US6299906A, “Process for making submicron particles” (Hoffmann-La Roche Inc., priority 1998, dated 2001).
# Where two headings read alike, the source gives them in different places.
# Experiments:
# [1] = Solubility of drug substances in liquid carbon dioxide and dimethyl ether (HPLC or gravimetric); format: physicochemical
# Method: A comparison of solubilities of a number of pharmaceutical drug substances was performed as follows:
# Approximately 3-5 g of the drug product was slightly compressed in a uniaxial press to avoid the formation of a stable suspension. The so compressed powder was placed in a pressure chamber with a sapphire glass (30 ml volume). The temperature of the pressure chamber was controlled by water bath. Then the pressure in the chamber was increased using the corresponding gas and equilibrated for 1-3 hours. After equilibration a 1.0 ml sample was drawn under constant pressure and temperature conditions using a high pressure line with a defined volume. […] The sample container was afterwards rinsed with the same liquid to collect the residues of the substance in the sample container.
# [2] = Particle size distribution of THL by laser diffraction, influence of the spraying time (Example 2); format: physicochemical; details: for Dv 0.1 / Dv 0.5 / Dv 0.9: CO2 200 bar, 40° C., Brij 96
# Description: (§1) The particle size distribution of very small particles of approximately 1 μm is difficult to determine accurately. Two commonly used methods are photon correlation spectroscopy (PCS) and laser diffraction. Photon correlation spectroscopy is commonly used for characterization of submicron suspensions and emulsions. Due to the principle of the measurement, movement of particles, particles larger than 3 to 5 μm cannot be seen with this method. With laser diffraction small particles, >0.1 μm, as well as larger particles, up to 2 mm, can be characterized in parallel. The diffraction of the light is thereby measured at small diffraction angles. For very small particles the method tends to overestimate the particle size due to transmission of light through the particles.
# (§2) Formation of fractions of coarse particles was observed especially after clogging of the nozzle, e.g. expansion of a compound dissolved in a compressed gas without modifier. To be able to detect the presence of coarse particles, laser diffraction was chosen to characterize the whole suspension. With its wide dynamic range, laser diffraction allows the detection of particles up to 2 mm that cannot be seen by the PCS method. Since laser diffraction tends to overestimate the particle size (FIGS. 2, 3), all the particle sizes determined by laser diffraction can be considered as too large.
# 150 g of solid THL and 75 g Brij 96 in a container with two sinter plates was charged into an autoclave having a volume of 6 liter. The autoclave was kept at a temperature of 40° C. with a water bath. Then the autoclave was filled with CO2 up to a pressure of 200 bar and equilibrated for 90 min.
# The autoclave was connected to a second autoclave via a heated high pressure line, kept at 40° C. […] The dissolved THL was sprayed into 1.25 liter of an aqueous solution of Brij 96 (0.06%=1 CMC) in this second autoclave. The pressure of the first autoclave was kept constant at 200 bar by pumping in additional gas.
# After 90, 150, and 180 minutes of spraying, a sample for particle size distribution was drawn. After 180 min the whole amount of THL/Brij was removed from the first container (≈12% THL in the final suspension).
# [3] = Particle size distribution of Saquinavir by laser diffraction, influence of the pressure in the first container (Example 3); format: physicochemical; details: DME, Aerosol OT, 40° C.
# Description: as §1, §2
# The autoclave was kept at a temperature of 40° C. with a water bath. Then the autoclave was filled with DME up to different pressures and equilibrated for 90 min.
# The autoclave was connected to a second autoclave via a heated high pressure line, kept at 25° C., 5 bar. […] The pressure of the first autoclave was kept constant by pumping in additional gas.
# The nozzle diameter was 0.1 mm. As commonly known a further decrease of particle size can be obtained by decrease of the nozzle diameter.
# [4] = Description: as §1
# To be able to detect the presence of coarse particles, laser diffraction was chosen to characterize the whole suspension. With its wide dynamic range, laser diffraction allows the detection of particles up to 2 mm that cannot be seen by the PCS method.
# The autoclave was kept at a temperature of 40° C. with a water bath. Then the autoclave was filled with DME up to 200 bar and equilibrated for 90 min.
# The autoclave was connected to a second autoclave via a heated high pressure line, kept at 25° C., at 5 bar. […] The pressure of the first autoclave was kept constant by pumping in additional gas.
# [5] = Particle size distribution of Saquinavir by Photon Correlation Spectroscopy (FIG. 2); format: physicochemical; details: batch no. 1051/30, Angle 90
# Description: as §1
# [6] = liquid co2, organic solvent or mixture, CO2, 45° C./200 bar, read-out: solubility (CO2)
# [7] = organic solvent or mixture, dimethyl ether, 45° C./200 bar, read-out: solubility (DME)
# [8] = pressure l00 bar (so in the source)
# [9] = surfactant Brij 96, DME 200 bar, 40° C.
compound,measurement,setting,value
COc1ccccc1Oc1c(NS(=O)(=O)c2ccc(C(C)(C)C)cc2)nc(-c2ncccn2)nc1OCCO [Bosentan],solubility,[1]; [6],< 1 mg/mL
same,solubility,[1]; [7],90 mg/mL
CC1=C(/C=C/C(C)=C/C=C/C(C)=C\C(=O)O)C(C)(C)CCC1 [Isotretionin],solubility,[1]; [6],3 mg/mL
same,solubility,[1]; [7],60 mg/mL
O=C(NCCN1CCOCC1)c1ccc(Cl)cc1 [Moclobemide],solubility,[1]; [6],3.5 mg/mL
same,solubility,[1]; [7],37 mg/mL
"CCCCCCCCCCC[C@@H](C[C@@H]1OC(=O)[C@H]1CCCCCC)OC(=O)[C@H](CC(C)C)NC=O [Orlistat, Tetrahydrolipstatin]",solubility,"[1]; organic solvent or mixture, dimethyl ether, 20° C./4.5 bar, read-out: solubility (DME)",178 mg/mL
same,solubility,"[1]; organic solvent or mixture, liquid CO2, 30° C./100 bar, read-out: solubility (CO2)",6 mg/mL
same,resulting particle size distribution,[2]; over the whole trial (up to 180 min spraying),kept almost constant over the whole trial
same,Dv 0.1,[2]; spraying time 90 min,0.6 μm
same,Dv 0.5,[2]; spraying time 90 min,1.4 μm
same,Dv 0.9,[2]; spraying time 90 min,2.9 μm
same,Dv 0.1,[2]; spraying time 150 min,0.4 μm
same,Dv 0.5,[2]; spraying time 150 min,1.5 μm
same,Dv 0.9,[2]; spraying time 150 min,3.5 μm
same,Dv 0.1,[2]; spraying time 180 min,0.9 μm
same,Dv 0.5,[2]; spraying time 180 min,2.1 μm
same,Dv 0.9,[2]; spraying time 180 min,4.5 μm
CC(C)(C)NC(=O)[C@@H]1C[C@@H]2CCCC[C@@H]2CN1C[C@@H](O)[C@H](Cc1ccccc1)NC(=O)[C@H](CC(N)=O)NC(=O)c1ccc2ccccc2n1 [Saquinavir],solubility,[1]; [6],< 1 mg/mL
same,solubility,"[1]; organic solvent or mixture, dimethyl ether, 25° C./100 bar, read-out: solubility (DME)",> 100 mg/mL
same,Dv 0.1,[3]; pressure 50 bar,0.5 μm
same,Dv 0.5,[3]; pressure 50 bar,3.8 μm
same,Dv 0.9,[3]; pressure 50 bar,6.4 μm
same,Dv 0.1,[3]; pressure 200 bar,0.9 μm
same,Dv 0.5,[3]; pressure 200 bar,1.5 μm
same,Dv 0.9,[3]; pressure 200 bar,2.4 μm
same,Dv 0.1,[3]; pressure 280 bar,0.4 μm
same,Dv 0.5,[3]; pressure 280 bar,0.8 μm
same,Dv 0.9,[3]; pressure 280 bar,1.7 μm
same,Dv 0.1,[3]; [8],1.0 μm
same,Dv 0.5,[3]; [8],2.1 μm
same,Dv 0.9,[3]; [8],4.5 μm
same,Dv 0.1,"[4]; surfactant Aerosol OT, DME",0.9 μm
same,Dv 0.5,"[4]; surfactant Aerosol OT, DME",1.5 μm
same,Dv 0.9,"[4]; surfactant Aerosol OT, DME",2.4 μm
same,Dv 0.1,[4]; [9],0.7 μm
same,Dv 0.5,[4]; [9],1.4 μm
same,Dv 0.9,[4]; [9],3.0 μm
same,Poly,[5],0.031
same,ZAve,[5],254.7
